From ChEMBL document CHEMBL1914429, “Potent and selective 2-naphthylsulfonamide substituted hydroxamic acid inhibitors of matrix metalloproteinase-13” (Bioorg Med Chem Lett, 2011)

Legend:
[1] = AUC in rat at 5 mg/kg, po; format: ADME, organism-based; design: dose 5 mg/kg, route oral; conditions: plasma
[2] = Half life in rat at 5 mg/kg, po and 1 mg/kg, iv; format: ADME, organism-based; conditions: in vivo
[3] = Clearance in rat at 5 mg/kg, po and 1 mg/kg, iv; format: ADME, organism-based; conditions: in vivo
[4] = Oral bioavailability in rat at 5 mg/kg; format: ADME, organism-based; conditions: in vivo
[5] = molecular target: 72 kDa type IV collagenase (Homo sapiens, UniProt P08253)
72 kDa type IV collagenase, sequence (P08253 whole entry): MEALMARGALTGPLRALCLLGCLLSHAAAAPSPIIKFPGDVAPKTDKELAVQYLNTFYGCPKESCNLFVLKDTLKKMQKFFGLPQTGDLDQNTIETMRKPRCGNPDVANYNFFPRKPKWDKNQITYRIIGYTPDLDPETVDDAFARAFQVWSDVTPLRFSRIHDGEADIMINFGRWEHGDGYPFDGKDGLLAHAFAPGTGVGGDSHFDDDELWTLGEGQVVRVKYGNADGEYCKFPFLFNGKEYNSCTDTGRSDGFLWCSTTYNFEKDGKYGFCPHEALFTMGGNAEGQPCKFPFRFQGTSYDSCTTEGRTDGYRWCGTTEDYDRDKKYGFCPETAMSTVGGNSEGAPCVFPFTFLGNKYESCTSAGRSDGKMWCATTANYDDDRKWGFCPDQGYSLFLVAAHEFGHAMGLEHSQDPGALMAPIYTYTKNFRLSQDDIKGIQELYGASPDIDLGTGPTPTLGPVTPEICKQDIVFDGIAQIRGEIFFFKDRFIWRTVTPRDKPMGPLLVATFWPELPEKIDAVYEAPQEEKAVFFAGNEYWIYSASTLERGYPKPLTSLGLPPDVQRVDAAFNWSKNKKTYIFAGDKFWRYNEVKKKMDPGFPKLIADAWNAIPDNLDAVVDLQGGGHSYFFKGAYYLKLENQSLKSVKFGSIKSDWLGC

CC(C)CCN([C@@H](C(=O)NO)C(C)C)S(=O)(=O)c1ccc2ccccc2c1
AUC [1]: 1.5 µM·h | half-life [2]: 5.7 h | clearance [3]: 40 mL/min/kg | bioavailability [4]: 23.8%

CC(C)[C@H](C(=O)NO)N(CCc1ccccc1)S(=O)(=O)c1ccc2ccccc2c1
AUC [1]: 0.45 µM·h | clearance [3]: 55 mL/min/kg

CC(C)CCN([C@@H](C(=O)NO)C(C)C)S(=O)(=O)c1ccc2c(c1)OCCO2
IC50 [5]: 3 nM

CC(C)CCN([C@@H](C(=O)NO)C(C)C)S(=O)(=O)c1ccc2sccc2c1
IC50 [5]: 16 nM | AUC [1]: 1.5 µM·h | clearance [3]: 118 mL/min/kg

CC(C)[C@H](C(=O)NO)N(Cc1ccncc1)S(=O)(=O)c1ccc2ccccc2c1
AUC [1]: 0.32 µM·h | clearance [3]: 122 mL/min/kg

CC(C)CCN([C@@H](C(=O)NO)C(C)O)S(=O)(=O)c1ccc2ccccc2c1 (stereo not given in full)
AUC [1]: 3.1 µM·h | clearance [3]: 55 mL/min/kg

CC(C)CCN([C@H](CO)C(=O)NO)S(=O)(=O)c1ccc2ccccc2c1
AUC [1]: 2.4 µM·h | clearance [3]: 45 mL/min/kg

COc1ccc(S(=O)(=O)N(CCC(C)C)[C@@H](C(=O)NO)C(C)C)cc1OC
IC50 [5]: 30100 nM

CC(C)[C@H](C(=O)NO)N(Cc1cccnc1)S(=O)(=O)c1ccc2ccccc2c1
AUC [1]: 0.55 µM·h | clearance [3]: 107 mL/min/kg

CC(C)CCN([C@@H](C(=O)NO)C(C)C)S(=O)(=O)c1ccc2ncccc2c1
AUC [1]: 4.6 µM·h | clearance [3]: 18.3 mL/min/kg

CC(C)CCN([C@@H](C(=O)NO)C(C)(C)C)S(=O)(=O)c1ccc2ccccc2c1
AUC [1]: 7.2 µM·h | clearance [3]: 26.7 mL/min/kg

CC(C)CN([C@@H](C(=O)NO)C(C)C)S(=O)(=O)c1ccc2ccccc2c1
IC50 [5]: 308 nM

CC(C)CCN([C@@H](C(=O)NO)C(C)C)S(=O)(=O)c1ccc2c(c1)CCO2
IC50 [5]: 10 nM

CC(C)[C@H](C(=O)NO)N(CCN(C)C)S(=O)(=O)c1ccc2ccccc2c1
AUC [1]: 0.27 µM·h | clearance [3]: 233 mL/min/kg

CC(C)CCN([C@@H](C(=O)NO)C(C)C)S(=O)(=O)c1ccc2ccccc2n1
IC50 [5]: 2050 nM | AUC [1]: 0.13 µM·h | clearance [3]: 91.7 mL/min/kg
